From PubChem BioAssay AID1259411 (Chemical Carcinogenesis Research Information System (CCRIS), 2018)
Active and inactive are the calls of the source. The rule behind the calls is not given here.

Tested on: rodent carcinogenicity bioassays, tumor incidence
Experiment: CCRIS carcinogenicity studies
Settings: Dose: 0
Summary of the method: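 NCI-built, expert-reviewed records of carcinogenicity and related test outcomes (mutagenicity, tumor promotion/inhibition) compiled from published and report sources, historical span 1985-2011, not updated.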

Measured: carcinogen call

Cc1ccc2c(c1N)C(=O)c1ccccc1C2=O
active: Species: MOUSE, Strain/Sex: B6C3F1/FEMALE, Route: ORAL, 0.06% OF DIET (2 DOSAGE REGIMENS--A & B RECEIVING SAME CONC), TWA, Tumor Site: Type of Lesion: LIVER: HEPATOCELLULAR CARCINOMA, NEOPLASTIC NODULE active; positive | Species: RAT, Strain/Sex: F344/FEMALE, Route: ORAL, 0.10, 0.20% OF DIET, 0.10, 0.20% OF DIET, Tumor Site: Type of Lesion: LIVER: HEPATOCELLULAR CARCINOMA, NEOPLASTIC NODULE active; positive | Species: RAT, Strain/Sex: F344/MALE, Route: ORAL, 0.10, 0.20% OF DIET, 0.10, 0.20% OF DIET, Tumor Site: Type of Lesion: LIVER: HEPATOCELLULAR CARCINOMA, NEOPLASTIC NODULE, KIDNEY: TUBULAR CELL ADENOMA, TUBULAR CELL ADENOCARCINOMA, ADENOCARC active; positive
inactive: Species: MOUSE, Strain/Sex: B6C3F1/MALE, Route: ORAL, 0.06% OF DIET (2 DOSAGE REGIMENS--A & B RECEIVING SAME CONC), TWA inactive; negative

O[C@@H]1[C@@H]2O[C@@H]2c2c(cc3ccc4cccc5c6ccccc6c2c3c45)[C@H]1O
active: Species: MOUSE, Strain/Sex: ICR/FEMALE, Route: INTRAPERITONEAL, 0.7 NMOL TOTAL DOSE INJECTED ON DAY 1 OF LIFE (STUDY DURATION: 35 WK), Tumor Site: Type of Lesion: LIVER: TUMOR, LUNG: TUMOR active; positive | Species: MOUSE, Strain/Sex: ICR/FEMALE, Route: INTRAPERITONEAL, 1 NMOL (TOTAL DOSE) ADMINISTERED IN DOSES OF 1/7, 2/7, AND 4/7 ON DAYS 1, 7, AND 15 OF LIFE, RESPECTIVELY (STUDY DURA, Tumor Site: Type of Lesion: LUNG: TUMOR active; positive | Species: MOUSE, Strain/Sex: ICR/FEMALE, Route: INTRAPERITONEAL, 1 NMOL TOTAL DOSE INJECTED IN DOSES OF 1/7 ON DAY 1, 2/7 ON DAY 8, AND 4/7 ON DAY 15 OF LIFE (STUDY DURATION: 35 WK), Tumor Site: Type of Lesion: LIVER: TUMOR, LUNG: TUMOR active; positive | Species: MOUSE, Strain/Sex: ICR/MALE, Route: INTRAPERITONEAL, 0.7 NMOL TOTAL DOSE INJECTED ON DAY 1 OF LIFE (STUDY DURATION: 35 WK), Tumor Site: Type of Lesion: LUNG: TUMOR active; positive | Species: MOUSE, Strain/Sex: ICR/MALE, Route: INTRAPERITONEAL, 1 NMOL (TOTAL DOSE) ADMINISTERED IN DOSES OF 1/7, 2/7, AND 4/7 ON DAYS 1, 7, AND 15 OF LIFE, RESPECTIVELY (STUDY DURA, Tumor Site: Type of Lesion: LUNG: TUMOR, LIVER: TUMOR active; positive | Species: MOUSE, Strain/Sex: ICR/MALE, Route: INTRAPERITONEAL, 1 NMOL TOTAL DOSE INJECTED IN DOSES OF 1/7 ON DAY 1, 2/7 ON DAY 8, AND 4/7 ON DAY 15 OF LIFE (STUDY DURATION: 35 WK), Tumor Site: Type of Lesion: LIVER: TUMOR, LUNG:TUMOR active; positive | Species: RAT, Strain/Sex: CD-1/FEMALE, Route: INJECTION, 0.2 UMOL IN 0.1 ML DMSO INJECTED BENEATH EACH OF THE 6 NIPPLES ON THE LEFT SIDE (STUDY DURATION: 41 WK), Tumor Site: Type of Lesion: MAMMARY GLAND: TUMOR active; positive | Species: RAT, Strain/Sex: STRAIN-CD/FEMALE, Route: INJECTION, 0.2 UMOL IN 0.1 ML DMSO INJECTED UNDER EACH OF THE 3 LEFT THORACIC NIPPLES FOLLOWED THE NEXT DAY BY SIMILAR TREATMENT, Tumor Site: Type of Lesion: MAMMARY GLAND: TUMOR active; positive

CCCC[C@@H](C)[C@@H](OC(=O)C[C@@H](CC(=O)O)C(=O)O)[C@H](C[C@@H](C)C[C@H](O)CCCC[C@@H](O)C[C@H](O)[C@H](C)N)OC(=O)C[C@@H](CC(=O)O)C(=O)O
inactive: Species: FISH, Strain/Sex: SHASTA RAINBOW TROUT/MALE,FEMALE, Route: ORAL, 3.2, 23, 104 PPM IN DIET FOR 4 WK, RESUMED AFTER 2 WK FOR 30 WK (STUDY DURATION: 60 WK), 3.2, 23, 104 PPM IN DIET FOR 4 WK, RESUMED AFTER 2 WK FOR 30 WK (STUDY DURATION: 60 WK) inactive; negative | Species: MOUSE, Strain/Sex: B6C3F1/MALE, Route: ORAL, 5, 15, 80, 150 PPM IN DIET FOR 104 WK (STUDY DURATION: 104 WK), 5, 15, 80, 150 PPM IN DIET FOR 104 WK (STUDY DURATION: 104 WK) inactive; negative | Species: RAT, Strain/Sex: BDIX/MALE,FEMALE, Route: ORAL, 1, 10, 25 MG/KG DIET FOR 2 YR (STUDY DURATION: 2 YR), 1, 10, 25 MG/KG DIET FOR 2 YR (STUDY DURATION: 2 YR) inactive; negative | Species: RAT, Strain/Sex: F344/FEMALE, Route: ORAL, 5, 15, 50, 100 PPM IN DIET FOR 104 WK (STUDY DURATION: 104 WK), 5, 15, 50, 100 PPM IN DIET FOR 104 WK (STUDY DURATION: 104 WK) inactive; negative
active: Species: MOUSE, Strain/Sex: B6C3F1/FEMALE, Route: ORAL, 5, 15, 50, 80 PPM IN DIET FOR 104 WK (STUDY DURATION: 104 WK), 5, 15, 50, 80 PPM IN DIET FOR 104 WK (STUDY DURATION: 104 WK), Tumor Site: Type of Lesion: LIVER: HEPATOCELLULAR ADENOMA, HEPATOCELLULAR CARCINOMA active; positive | Species: RAT, Strain/Sex: BDIX/MALE, Route: ORAL, 50 MG/KG DIET FOR 26 MO (STUDY DURATION: 26 MO), Tumor Site: Type of Lesion: LIVER: HEPATOCELLULAR CARCINOMA active; positive | Species: RAT, Strain/Sex: F344/MALE, Route: ORAL, 5, 15, 50, 150 PPM IN DIET FOR 104 WK (STUDY DURATION: 104 WK), 5, 15, 50, 150 PPM IN DIET FOR 104 WK (STUDY DURATION: 104 WK), Tumor Site: Type of Lesion: KIDNEY: RENAL TUBULE ADENOMA, RENAL TUBULE CARCINOMA active; positive

CCOP(=S)(OCC)Oc1cc(C)nc(C(C)C)n1
inactive: Species: MOUSE, Strain/Sex: B6C3F1/FEMALE, Route: ORAL, 100, 200 PPM IN DIET, 100, 200 PPM IN DIET inactive; negative | Species: MOUSE, Strain/Sex: B6C3F1/MALE, Route: ORAL, 100, 200 PPM IN DIET, 100, 200 PPM IN DIET inactive; negative | Species: RAT, Strain/Sex: F344/FEMALE, Route: ORAL, 400, 800 PPM IN DIET, 400, 800 PPM IN DIET inactive; negative | Species: RAT, Strain/Sex: F344/MALE, Route: ORAL, 400, 800 PPM IN DIET, 400, 800 PPM IN DIET inactive; negative
